“Also recorded” adds a separate entry of the source.
Tests used:
[1] = tested on: human coronary artery endothelial cells (hCaEC); experiment: hCaEC migration induced by full growth media after 24 h drug pretreatment; assay type: cell-based; details: for effect on full growth media induced hCaEC migration after drug pretreatment: 24 h pretreatment in full growth media, drug present during migration
Description: (§1) In acute studies, cells were collected, counted, and 200,000 hCaEC or 160,000 hCaSMC placed in the upper chambers of modified boyden chambers in 24 well plates (BD Biosciences). Plates contained microporous membranes of 3.0 and 8.0 um for hCaEC and hCaSMC, respectively. […] After migration, cells were stained with calcein-AM for 90 minutes and fluorescence determined using a plate reader capable of measuring fluorescence emitted by the bottom of the microporous filter.
Migration of hCaEC was induced by full growth media and the effects of the drugs sirolimus, dexamethasone, zotarolimus, everolimus, and paclitaxel on hCaEC migration determined. Following pretreatment cells were counted and re-suspended in basal media containing drugs and migration initiated.

[2] = tested on: human coronary artery endothelial cells (hCaEC); experiment: hCaEC migration in response to FBS after 24 h drug pretreatment; assay type: cell-based; details: 24 h pretreatment in growth media; migration to 5% FBS without growth factors; drug present
Description: as §1
To determine if growth factors contained in full growth media played a role in the inability of the mTOR antagonists (sirolimus or zotarolimus) or dexamethasone to inhibit migration, additional experiments were conducted to determine if drug pretreatment would affect migration induced by 5% FBS in the absence of growth factors. Migration in response to FBS following pretreatment of hCaEC with different concentrations of drugs was determined for the drugs sirolimus, dexamethasone, zotarolimus, and paclitaxel. To explore this effect in hCaEC, cells were synchronized, pretreated with drug in growth media for 24 hours, resuspended in basal media containing drug and migration in response to FBS determined. […] Dexamethasone promoted hCaEC migration.

[3] = tested on: human coronary artery smooth muscle cells (hCaSMC); experiment: PDGF-BB induced hCaSMC migration after 24 h drug pretreatment; assay type: cell-based; details: 24 h pretreatment; PDGF-BB 25 ng/ml
Description: as §1
Pre-exposure with the mTOR agent sirolimus has been reported to block rat aortic smooth muscle cell migration in response to S1P-1 and porcine aortic smooth muscle in response to PDGF-BB. […] In contrast to their inability to block serum-induced migration, zotarolimus, dexamethasone, and paclitaxel all inhibited migration in response to the single chemotactic agent PDGF-BB (25 ng/ml).

[4] = tested on: p70S6K (T389) phosphorylation in hCaEC; experiment: Western blot of p70S6K (T389) phosphorylation in hCaEC; assay type: cell-based, human; details: for effect on p70S6K T389 phosphorylation in hCaEC: 300 nM drug in growth media, 36 hours, after 24 h synchronization
Description: Human Coronary Endothelial Cells (hCaEC, Cambrex) were seeded on 100 mm plastic dishes (1-3×10^5 cells per dish) and incubated at 37° C. with 5% CO2 in complete growth media containing hFGF, HEGF, VEGF, R^3-IGF-1 and 5% FBS (GM). Cells were allowed to grow until dishes were 30-40% confluent. Cells were synchronized by incubation in basal media without supplements (BM) for 24 h. After synchronization the BM was replaced with GM containing test compounds, DMSO and BSA (Experimental dish: GM containing 300 nM test compounds, 0.1% BSA; Positive control: GM containing 0.1% BSA and 0.1% DMSO; Negative control: BM containing 0.1 or 0.5% FBS, 0.1% BSA and 0.1% DMSO).
Cells were incubated for 24 or 36 hours at 37° C. with 5% CO2. After which dishes were 50-70% confluent. Dishes were rinsed with warm PBS to remove excess FBS and than placed on ice. Whole cell lysates were prepared by adding 150-200 ul of RIPA lysis buffer at 4° C. (50 mM Tris HCl pH 8, 150 mM NaCl, 1% NP-40, 0.5% sodium deoxycholate, 0.1% SDS, 2 mM PMSF, 1 mM sodium orthovanadate, and protease inhibitor cocktail, Santa Cruz Biotechnology) to the culture dishes and collected by scrapping the plate surface with a cell scrapper. Lysates were transferred to 1 ml eppendorf tubes and incubated on ice with vortexing for 30 min. Samples were than centrifuged for 8 min at 10000 rpm. Supernatants were collected and transferred into new tubes and stored at −70° C.
The total protein concentration of the samples was determined by a modification of the method of Bradford (Quick Start Bradford Microplate Standard Assay, Bio-Rad) with bovine γ-globulin as a standard.
Total volume of the loaded sample was 45 ul containing 15 ul of 3× sample buffer (Laemmli Sample Buffer, Bio Rad), and sample (30 ul) containing 25 to 50 ug of protein. Samples were diluted to the same protein concentration. Samples were mixed and boiled at 98° C. for 3-4 minutes. Denaturated samples were separated in 4-15% gradient or 12% Ready Tris-HCl gels (Bio-Rad) in running buffer 25 mM Tris, pH 8.3, 192 mM glycine, 0.1% SDS at 150-180 V for 60-90 minutes and transferred to Hybond-ECL membrane (Amersham Biosciences) in 25 mM Tris, pH 8.3, 192 mM glycine, 20% methanol at 100 V for 1 hour.
Protein transfer to the membrane was verified by staining with Ponceau. Ponceau was removed by washing membranes 3 times for 5 minutes in TBS-T (10 mM Tris, pH 7.4, 150 mM NaCl, and 0.1% Tween 20). The membrane was blocked with a 3% solution of nonfat dry milk (Blotting-Grade Blocker, Bio-Rad) in TBS-T for 1 hour at room temperature. Membranes were then incubated with rabbit anti-phospho-p70S6K (T389) monoclonal antibody (Cell Signaling) 1:200 or 1:400 in 3% nonfat dry milk overnight at +4° C. and gently rocked. Goat polyclonal antibodies raised against the C-terminus of actin of human origin (Santa-Cruz Biotechnology) were used at a 1:800 dilution.
After overnight incubation with the primary antibody, membranes were washed with TBS-T 3 times for 5 minutes followed by incubation with the appropriate horseradish peroxidase linked secondary antibodies in 3% nonfat dry milk according to antibody supplier instructions. After one-hour incubation at room temperature with secondary antibodies the membrane was washed again using TBS-T, 3 times for 5 minutes and developed using ECL Plus (Amersham Biosciences). Images of the membranes were scanned and stored using a multi-channel scanning system FLA-5000 (FUJI Film). […]

[5] = tested on: human coronary artery smooth muscle cells (hCaSMC); experiment: hCaSMC migration in response to FBS alone after 24 h drug pretreatment; assay type: cell-based; details: 24 h pretreatment in growth media, drug present
Description: as §1
Another experiment was conducted to determine if growth factors contained in full growth media played a role in the inability of the mTOR antagonist zotarolimus or dexamethasone to inhibit human coronary artery smooth muscle cell (hCaSMC) migration. Migration in response to FBS following pretreatment of hCaSMC with different concentrations of drugs was determined for the drugs dexamethasone, zotarolimus, rapamycin, and paclitaxel. To explore this effect, hCaSMC were synchronized, pretreated with drug in growth media for 24 hours, resuspended in basal media containing drug and migration in response to FBS alone determined.

pRb phosphorylation = experiment: pRb phosphorylation; assay type: cell-based
[6] = tested on: p70S6K (T389) phosphorylation in hCaSMC; experiment: Western blot of p70S6K (T389) phosphorylation in hCaSMC; assay type: cell-based, human; details: 300 nM drug, 36 hours, after 24 h synchronization
Description: To determine if inhibition of p70S6K was involved in serum-induced migration Western blot experiments were performed on hCaEC and hCaSMC treated using an experimental paradigm similar to those of the migration experiments. […] The effects of drug treatment on p70S6K T389 phosphorylation in hCaEC are illustrated in FIG. 6A-6B. […] Paclitaxel also reduces T389 phosphorylation though this effect is less than that of the mTOR antagonists.
Membranes were probed with a rabbit anti-phospho-p70S6K (T389) monoclonal antibody (Cell Signaling). […] Furthermore, the anti-migratory activity of the mTOR antagonists is not likely to contribute to their anti-restenotic activity. Conversely, paclitaxel is a potent anti-migratory agent and this effect is likely to contribute to the anti-restenotic activity.

[7] = tested on: human coronary artery endothelial cells (hCaEC); experiment: hCaEC migration, modified Boyden chamber, acute drug exposure, induced by 5% FBS; assay type: cell-based; details: for effect on hCaEC migration: no pretreatment, 22 hour migration
Description: As such, EC and SMC migration in response to hFGF, HEGF, VEGF, R^3-IGF-1 and FBS or FBS alone was determined using a modified Boyden chamber.
When necessary, each cell type was passed at ˜75% confluence.
as §1

Q: With `CO[C@H]1C[C@@H]2CC[C@@H](C)[C@@](O)(O2)C(=O)C(=O)N2CCCC[C@H]2C(=O)O[C@H]([C@H](C)C[C@@H]2CC[C@H](n3cnnn3)[C@H](OC)C2)CC(=O)[C@H](C)/C=C(\C)[C@@H](O)[C@@H](OC)C(=O)[C@H](C)C[C@H](C)/C=C/C=C/C=C/1C` [zotarolimus] as the compound, how does the “effect on full growth media induced hCaEC migration after drug pretreatment” value [1] read?
A: Its value is “only paclitaxel inhibits”.

Q: And the “effect on FBS-induced hCaEC migration after drug pretreatment” value [2]?
A: The value was “did not significantly block”.

Q: And the “effect on hCaSMC migration in response to PDGF-BB” value [3]?
A: Its value is “inhibited”.

Q: And the “effect on p70S6K T389 phosphorylation in hCaEC” value [4]?
A: Its value is “completely block; also recorded: inhibit”.

Q: What about the “p70S6K T389 to actin ratio compared to growth controls (densitometry)” value ([4]; hCaEC, 300 nM drug) of the same compound?
A: Its value is “significant inhibition”.

Q: And the “effect on FBS-induced hCaSMC migration after drug pretreatment” value [5]?
A: The value was “did not significantly block”.

Q: And the “effect on pRb phosphorylation” value (pRb phosphorylation)?
A: The value was “reduces”.

Q: And the “effect on p70S6K T389 phosphorylation in hCaSMC” value [6]?
A: The value was “completely inhibit”.

Q: What about the “effect on hCaEC migration” value [7] of the same compound?
A: The value was “no effect”.

Q: How did the “effect on p70S6K T389 phosphorylation in hCaEC” value [4] turn out when `C[C@@H]1C[C@H]2[C@@H]3CCC4=CC(=O)C=C[C@]4(C)[C@@]3(F)[C@@H](O)C[C@]2(C)[C@@]1(O)C(=O)CO` [dexamethasone] was run?
A: The value was “does not inhibit”.

Q: With `CO[C@H]1C[C@@H]2CC[C@@H](C)[C@@](O)(O2)C(=O)C(=O)N2CCCC[C@H]2C(=O)O[C@H]([C@H](C)C[C@@H]2CC[C@@H](OCCO)[C@H](OC)C2)CC(=O)[C@H](C)/C=C(\C)[C@@H](O)[C@@H](OC)C(=O)[C@H](C)C[C@H](C)/C=C/C=C/C=C/1C` [everolimus] as the compound, how does the “effect on full growth media induced hCaEC migration after drug pretreatment” value [1] read?
A: Its value is “only paclitaxel inhibits”.

Q: What does the source list for `CC(=O)O[C@H]1C(=O)[C@@]2(C)[C@H]([C@H](OC(=O)c3ccccc3)[C@]3(O)C[C@H](OC(=O)[C@H](O)[C@@H](NC(=O)c4ccccc4)c4ccccc4)C(C)=C1C3(C)C)[C@]1(OC(C)=O)CO[C@@H]1C[C@@H]2O` [paclitaxel]?
A: effect on full growth media induced hCaEC migration after drug pretreatment [1]: inhibits; effect on migration of human coronary artery endothelial cells in vitro (summary statement) ([1]; in the presence of multiple growth factors and FBS): inhibits; effect on FBS-induced hCaEC migration after drug pretreatment [2]: significantly blocks; effect on hCaSMC migration in response to PDGF-BB [3]: inhibited; effect on p70S6K T389 phosphorylation in hCaEC [4]: inhibit; effect on p70S6K T389 phosphorylation in hCaEC ([4]; listed as Paclitaxel): reduces; effect on FBS-induced hCaSMC migration after drug pretreatment [5]: significantly blocks; effect on p70S6K T389 phosphorylation in hCaSMC [6]: reduces; anti-migratory potency in hCaEC compared to hCaSMC [7]: significantly greater

Q: `CO[C@H]1C[C@@H]2CC[C@@H](C)[C@@](O)(O2)C(=O)C(=O)N2CCCC[C@H]2C(=O)O[C@H]([C@H](C)C[C@@H]2CC[C@@H](O)[C@H](OC)C2)CC(=O)[C@H](C)/C=C(\C)[C@@H](O)[C@@H](OC)C(=O)[C@H](C)C[C@H](C)/C=C/C=C/C=C/1C` [sirolimus] was tested. Which “effect on hCaEC migration” value [7] did it give?
A: Its value is “no effect”.
